# Assay results reported in ChEMBL document CHEMBL4828714, “Mutasynthesis of Antibacterial Halogenated Actinomycin Analogues” (J Nat Prod, 2021).
# Numbered stars: 1 amine (or outer) side, 2 acyl side, 3 side chain; on linkers, the order of the positions; unused ones are H or OH. Bridge positions count the residues as written; N and C are the ends. Square brackets hold non-standard residues; d marks the D form. Peptide text beside a SMILES is read from it. I, II: the chains in the order shown. Actinocin(1to9) = Cc1c2oc3c(C)ccc(C(=O)[*:2])c3nc-2c(C(=O)[*:1])c(N)c1=O; NMeV = CN[C@H](C(=O)O)C(C)C; Sar = CNCC(=O)O
# Experiments:
# [1] = test system: Staphylococcus aureus; test: Antimicrobial activity against Staphylococcus aureus Sau 16162 assessed as inhibition of bacterial growth incubated for 16 to 18 hrs by broth micro dilution technique; assay type: functional; settings: time 16-18 hrs
# [2] = test system: Staphylococcus aureus; test: Antimicrobial activity against Staphylococcus aureus Sau 6917 assessed as inhibition of bacterial growth incubated for 16 to 18 hrs by broth micro dilution technique; assay type: functional; settings: time 16-18 hrs
# [3] = test system: Staphylococcus aureus; test: Antimicrobial activity against Staphylococcus aureus Sau 1862 assessed as inhibition of bacterial growth incubated for 16 to 18 hrs by broth micro dilution technique; assay type: functional; settings: time 16-18 hrs
# [4] = test system: Staphylococcus aureus; test: Antimicrobial activity against Staphylococcus aureus Sau 991 assessed as inhibition of bacterial growth incubated for 16 to 18 hrs by broth micro dilution technique; assay type: functional; settings: time 16-18 hrs
# [5] = test system: Staphylococcus aureus; test: Antimicrobial activity against Staphylococcus aureus Sau 718306 assessed as inhibition of bacterial growth incubated for 16 to 18 hrs by broth micro dilution technique; assay type: functional; settings: time 16-18 hrs
# [6] = test system: Staphylococcus aureus; test: Antimicrobial activity against Staphylococcus aureus Sau 745524 assessed as inhibition of bacterial growth incubated for 16 to 18 hrs by broth micro dilution technique; assay type: functional; settings: time 16-18 hrs
# [7] = test system: Staphylococcus aureus; test: Antimicrobial activity against Staphylococcus aureus CCAM 3090 assessed as inhibition of bacterial growth incubated for 16 to 18 hrs by broth micro dilution technique; assay type: functional; settings: time 16-18 hrs
# [8] = test system: Staphylococcus aureus; test: Antimicrobial activity against Staphylococcus aureus ATCC 29213 assessed as inhibition of bacterial growth incubated for 16 to 18 hrs by broth micro dilution technique; assay type: functional; settings: time 16-18 hrs
# [9] = test system: Micrococcus luteus; test: Antimicrobial activity against Micrococcus luteus ML01 assessed as inhibition of bacterial growth incubated for 16 to 18 hrs by broth micro dilution technique; assay type: functional; settings: time 16-18 hrs
# [10] = test system: Enterococcus faecium; test: Antimicrobial activity against Enterococcus faecium ATCC 35682 assessed as inhibition of bacterial growth incubated for 16 to 18 hrs by broth micro dilution technique; assay type: functional; settings: time 16-18 hrs
# [11] = test system: Enterococcus faecalis; test: Antimicrobial activity against Enterococcus faecalis ATCC 29212 assessed as inhibition of bacterial growth incubated for 16 to 18 hrs by broth micro dilution technique; assay type: functional; settings: time 16-18 hrs
# [12] = test system: Bacillus thuringiensis; test: Antimicrobial activity against Bacillus thuringiensis BT01 assessed as inhibition of bacterial growth incubated for 16 to 18 hrs by broth micro dilution technique; assay type: functional; settings: time 16-18 hrs
# [13] = test system: Candida albicans; test: Antimicrobial activity against Candida albicans assessed as inhibition of bacterial growth incubated for 16 to 18 hrs by broth micro dilution technique; assay type: functional; settings: time 16-18 hrs
# [14] = test system: HepG2; test: Cytotoxicity against human HepG2 cells assessed as growth inhibition incubated for 68 hrs by MTT assay; assay type: functional, cell-based; settings: HepG2, 68 h
# [15] = test system: HeLa; test: Cytotoxicity against human HeLa cells assessed as growth inhibition incubated for 68 hrs by MTT assay; assay type: functional, cell-based
# [16] = test system: HL-60; test: Cytotoxicity against human HL-60 cells assessed as growth inhibition incubated for 68 hrs by MTT assay; assay type: functional, cell-based; settings: HL-60, 68 h
# [17] = test system: RKO; test: Cytotoxicity against human RKO cells assessed as growth inhibition incubated for 68 hrs by MTT assay; assay type: functional, cell-based
# [18] = test system: A549; test: Cytotoxicity against human A549 cells assessed as growth inhibition incubated for 68 hrs by MTT assay; assay type: functional, cell-based; settings: A549, 68 h
# [19] = test system: MCF7; test: Cytotoxicity against human MCF7 cells assessed as growth inhibition incubated for 68 hrs by MTT assay; assay type: functional, cell-based; settings: MCF7, 68 h
# [20] = test system: L02; test: Cytotoxicity against human L02 cells assessed as growth inhibition incubated for 68 hrs by MTT assay; assay type: cell-based; settings: L02, 68 h
# [21] = test system: BEAS-2B; test: Cytotoxicity against human BEAS-2B cells assessed as growth inhibition incubated for 68 hrs by MTT assay; assay type: cell-based
Compound,MIC [1] [µg/mL],MIC [2] [µg/mL],MIC [3] [µg/mL],MIC [4] [µg/mL],MIC [5] [µg/mL],MIC [6] [µg/mL],MIC [7] [µg/mL],MIC [8] [µg/mL],MIC [9] [µg/mL],MIC [10] [µg/mL],MIC [11] [µg/mL],MIC [12] [µg/mL],MIC [13] [µg/mL],IC50 [14] [nM],IC50 [15] [nM],IC50 [16] [nM],IC50 [17] [nM],IC50 [18] [nM],IC50 [19] [nM],IC50 [20] [nM],further results
COc1c2oc3c(OC)ccc(C(=O)N[C@@H]4C(=O)N[C@H](C(C)C)C(=O)N5CCC[C@H]5C(=O)N(C)CC(=O)N(C)[C@@H](C(C)C)C(=O)O[C@@H]4C)c3nc-2c(C(=O)N[C@@H]2C(=O)N[C@H](C(C)C)C(=O)N3CCC[C@H]3C(=O)N(C)CC(=O)N(C)[C@@H](C(C)C)C(=O)O[C@@H]2C)c(N)c1=O,8,2,2,2,2,2,2,2,0.5,8,8,4,16,4000,4300,200,1700,18500,4100,3900,IC50 [21]: 2700 nM
CC(C)[C@H]1C(=O)O[C@H](C)[C@H](NC(=O)c2c3nc4c(C(=O)N[C@@H]5C(=O)N[C@H](C(C)C)C(=O)N6CCC[C@H]6C(=O)N(CO)CC(=O)N(C)[C@@H](C(C)C)C(=O)O[C@@H]5C)ccc(Br)c4oc-3c(Br)c(=O)c2N)C(=O)N[C@H](C(C)C)C(=O)N2CCC[C@H]2C(=O)N(C)CC(=O)N1C,32,32,32,32,16,32,32,32,2,4,32,4,8,> 50000,> 50000,> 50000,24600,37800,12800,13300,IC50 [21]: 5800 nM
CC(C)[C@H]1C(=O)O[C@H](C)[C@H](NC(=O)c2c3nc4c(C(=O)N[C@@H]5C(=O)N[C@H](C(C)C)C(=O)N6CCC[C@H]6C(=O)N(C)CC(=O)N(C)[C@@H](C(C)C)C(=O)O[C@@H]5C)ccc(Br)c4oc-3c(Br)c(=O)c2N)C(=O)N[C@H](C(C)C)C(=O)N2CCC[C@H]2C(=O)N(C)CC(=O)N1C,16,16,8,8,8,8,8,8,< 0.06,0.13,16,0.25,16,2400,6200,40,1500,1100,1500,17600,IC50 [21]: 2200 nM
"Cc1c2oc3c(C)ccc(C(=O)N[C@@H]4C(=O)N[C@H](C(C)C)C(=O)N5CCC[C@H]5C(=O)N(C)CC(=O)N(C)[C@@H](C(C)C)C(=O)O[C@@H]4C)c3nc-2c(C(=O)N[C@@H]2C(=O)N[C@H](C(C)C)C(=O)N3CCC[C@H]3C(=O)N(C)CC(=O)N(C)[C@@H](C(C)C)C(=O)O[C@@H]2C)c(N)c1=O [DACTINOMYCIN] (I: T[dV]P[Sar][NMeV] / II: T[dV]P[Sar][NMeV]; ester I:1-I:C, II:1-II:C; linker I:N-II:N via Actinocin(1to9))",1,0.06,0.06,0.06,0.06,0.06,0.06,0.06,< 0.06,0.13,< 0.06,0.06,< 0.06,10,120,20,30,3800,200,500,IC50 [21]: 700 nM
CC(C)[C@H]1C(=O)O[C@H](C)[C@H](NC(=O)c2c3nc4c(C(=O)N[C@@H]5C(=O)N[C@H](C(C)C)C(=O)N6CCC[C@H]6C(=O)N(C)CC(=O)N(C)[C@@H](C(C)C)C(=O)O[C@@H]5C)ccc(I)c4oc-3c(I)c(=O)c2N)C(=O)N[C@H](C(C)C)C(=O)N2CCC[C@H]2C(=O)N(C)CC(=O)N1C,4,4,2,2,2,2,4,4,< 0.06,0.06,2,0.13,0.13,100,200,50,200,5000,1100,1500,IC50 [21]: 500 nM
